Oligonucleotides are written 5' to 3', each unit as a sugar letter and its base; * is a phosphorothioate linkage, no mark a phosphodiester; rarer units and linkages stand in square brackets, end groups in braces. Plain capitals give the bases only. d = 2'-deoxy (DNA)

We go through 7 substances from patent publication US7795235B2, “Semi-soft c-class immunostimulatory oligonucleotides” (Coley Pharmaceutical GmbH, priority 2004, dated 2010).

In series [1] the test system is human PBMC. Put plainly: Cytokine secretion (IL-10, TNF-alpha, interferon-gamma, IL-6) from human PBMC. It is filed as cell-based. To be noted: human PBMC (3 donors), 48 hours, ELISA, FIG. 27. The method, then: Peripheral blood buffy coat preparations from healthy male and female human donors were obtained from the Blood Bank of the University of Düsseldorf (Germany) and from these, PBMC were purified by centrifugation over Ficoll-Hypaque (Sigma). The purified PBMC were either used freshly (for most assays) or were suspended in freezing medium and stored at −70° C. When required, aliquots of these cells were thawed, washed and resuspended in RPMI 1640 culture medium (BioWhittaker, Belgium) supplemented with 5% (v/v) heat inactivated human AB serum (BioWhittaker, Belgium) or 10% (v/v) heat inactivated FCS, 2 mM L-glutamine (BioWhittaker), 100 U/ml penicillin and 100 μg/ml streptomycin (Invitrogen (Karlsruhe, Germany)).
Thawed or fresh PBMC were seeded on 48 well flat-bottom plates, or 96 well round-bottom plates, and incubated with ODN in the concentrations as indicated in a humidified incubator at 37° C. Culture supernatants were collected and if not used immediately, were frozen at −20° C. until required. Amounts of cytokines in the supernatants were assessed using commercially available ELISA Kits (Diaclone, USA) or in-house ELISAs developed using commercially available antibodies (from Becton Dickinson/Pharmingen or PBL). […]

In series [2] the target is T1, human TLR9 (Homo sapiens, UniProt Q9NR96).
T1 construct: expressed in transfected cells; host or cells: HEK 293
T1 sequence (Q9NR96 26-1032): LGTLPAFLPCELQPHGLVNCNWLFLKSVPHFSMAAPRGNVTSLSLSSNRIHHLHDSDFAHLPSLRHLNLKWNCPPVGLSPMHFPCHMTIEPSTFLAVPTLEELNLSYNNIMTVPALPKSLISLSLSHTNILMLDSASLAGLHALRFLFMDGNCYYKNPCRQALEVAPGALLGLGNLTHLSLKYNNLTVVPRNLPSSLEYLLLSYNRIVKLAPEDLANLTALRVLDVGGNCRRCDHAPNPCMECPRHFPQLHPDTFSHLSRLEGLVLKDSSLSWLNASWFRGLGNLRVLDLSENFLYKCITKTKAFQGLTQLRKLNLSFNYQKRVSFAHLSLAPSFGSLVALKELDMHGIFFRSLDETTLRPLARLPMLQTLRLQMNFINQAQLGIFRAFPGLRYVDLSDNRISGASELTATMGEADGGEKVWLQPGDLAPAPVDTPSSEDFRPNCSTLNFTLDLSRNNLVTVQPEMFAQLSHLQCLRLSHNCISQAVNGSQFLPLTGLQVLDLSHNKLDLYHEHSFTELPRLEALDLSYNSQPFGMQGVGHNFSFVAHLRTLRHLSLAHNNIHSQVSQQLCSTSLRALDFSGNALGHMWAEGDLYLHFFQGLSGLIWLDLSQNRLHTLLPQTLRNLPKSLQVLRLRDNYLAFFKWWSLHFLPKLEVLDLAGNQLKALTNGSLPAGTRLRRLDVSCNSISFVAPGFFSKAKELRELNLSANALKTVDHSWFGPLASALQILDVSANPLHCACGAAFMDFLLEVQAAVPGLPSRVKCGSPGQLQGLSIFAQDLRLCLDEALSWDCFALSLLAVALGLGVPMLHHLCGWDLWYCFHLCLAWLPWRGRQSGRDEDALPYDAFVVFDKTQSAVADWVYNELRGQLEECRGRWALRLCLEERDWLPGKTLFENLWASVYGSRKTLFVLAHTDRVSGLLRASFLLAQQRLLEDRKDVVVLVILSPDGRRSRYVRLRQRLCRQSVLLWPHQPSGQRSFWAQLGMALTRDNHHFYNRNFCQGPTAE
Put plainly: Stimulation of TLR9-transfected cells in vitro (luciferase readout). To be noted: quotient between highest value of all concentrations tested and medium control. It is filed as cell-based. The procedure:
Methods: HEK 293 cells transfected with human TLR9 were incubated with SEQ ID NO:1, SEQ ID NO:2, SEQ ID NO:3, SEQ ID NO:4, SEQ ID NO:5, or SEQ ID NO:6 for 16 hours. The signal was determined by a luciferase readout.
The EC50 was calculated using Sigma Plot (SigmaPlot 2002 for Windows version 8.0). The maximal stimulation index (max SI) was calculated as the quotient between the highest value of all concentrations tested for any ODN and the medium control.

The test system of series [3] is BALB/c mice. Put plainly: Mouse model of allergic rhinitis (sneezing, nasal rubbing). It is filed as in vivo. Particulars: intranasal, 10 minute period after antigen challenge, FIG. 3. The method, then: Mice (male BALB/c) were sensitized on study days 0 and 7 with antigen (ovalbumin, 100 μg, i.p.) with aluminum hydroxide adjuvant (Pierce Alum i.p.). Mice were antigen challenged daily by exposure to intranasally-administered antigen (1 mg in 10 μl saline). The first challenge was on study day 14. SEQ ID NO:7 was administered intranasally twice. The first dose was given 2 days before the first antigen challenge. The second dose was given 7 days later. Alternatively, budesonide (an anti-inflammatory, synthetic corticosteroid) was administered intranasally daily. The first dose was given 2 days before the first antigen challenge. On each day, the budesonide dose was administered intranasally 4 hours before intranasal antigen challenge. Endpoints were measured on study day 26 (i.e. 7 days after the second dose of SEQ ID NO: 7. Nasal tissues were taken for histopathological assessment of inflammation. Separate mice received a final antigen challenge and incidences of sneezing and nasal rubbing were counted for a 10 minute period after challenge.
Methods: BALB/c mice were used to study the effects of SEQ ID NO:7 on symptoms of allergic rhinitis. […] Separate mice received a final antigen challenge and incidences of sneezing and nasal rubbing were counted for a 10 minute period after challenge.

The subject of series [4] is guinea pigs. Put plainly: Antigen-induced increase in nasal resistance in guinea pigs. In kind it is in vivo, guinea pig. Particulars: 0.03-1 mg/kg intranasal, over 40 minutes after challenge, FIG. 2. The method, then: Guinea pigs (male, Hartley) were sensitized with antigen (ovalbumin, 5 mg both intraperitoneal and subcutaneous) on study day 0. A boost sensitization (5 mg, intraperitoneal) was given on study day 4. Guinea pigs were antigen challenged by exposure to intranasally-administered antigen twice each week for two consecutive weeks. The first challenge was on study day 14. SEQ ID NO:7 (lot number AQE-03J-001-M, 0.03-1 mg/kg in […] saline) was administered intranasally once each week, two days before the first antigen challenge of the week. With the exception of the final challenge on study day 24, antigen challenge was with ovalbumin (1.5 mg/kg in 150 μl/kg saline). Animals were pretreated with mepyramine (10 mg/kg, intraperitoneal) 30 minutes before challenge to protect against histamine-induced anaphylaxis. On study day 24, guinea pigs were anesthetized to allow measurement of nasal resistance using a Buxco respiratory mechanics system and software. […] Nasal resistance was measured for 40 minutes after challenge.
Methods: To investigate the effects of the CpG oligodeoxynucleotide SEQ ID NO:7 against antigen induced increases in nasal resistance in the guinea pigs guinea pigs were sensitized with antigen, then antigen-challenged nasally. Nasal resistance was measured for 40 minutes after challenge.

The subject of series [5] is guinea pigs. Put plainly: Guinea pig AHR protocol (airway resistance and lung compliance). Particulars: guinea pigs, 10, 30, 100 or 300 μl/kg, i.t. In kind it is in vivo. The procedure: Male guinea pigs were sensitized on study days 0 and 4 with antigen (ovalbumin, 0.5 ml, 1% OVA i.p./s.c.) with aluminum hydroxide adjuvant. Guinea pigs were antigen challenged by exposure to inhaled ovalbumin aerosol, twice each week for two consecutive weeks. The first challenge was on study day 13. CpG ODN or vehicle (saline, 20 μl) were administered intranasally once each week, two days before the first antigen challenge of the week. Airways hyperreactivity was assessed 24 hours after the last antigen challenge by measuring bronchoconstriction (increase in airway resistance) to intravenous methacholine. For each animal, a dose-response curve to methacholine was obtained, and airway reactivity was quantified as the area under the curve.
Method: Guinea pigs were sensitized as described in Example 10. The first challenge was on study day 13. Guinea pigs were given intranasally either carrier (saline), OVA alone, of concentrations of SEQ ID NO:7 of 10 μl/kg, 30 μl/kg, 100 μl/kg, or 300 μl/kg, i.t.
Method: Guinea pigs were sensitized as described in Example 10. The first challenge was on study day 13. Guinea pigs were given intranasally either carrier (saline), OVA alone, of concentrations of SEQ ID NO:2 of 10 μl/kg, 30 μl/kg, 100 μl/kg, or 300 μl/kg, i.t.

For series [6], the system named is BALB/c mice. Put plainly: Antigen-induced IgE and IgG2a production in the mouse. It is filed as in vivo. Particulars: i.p. 1-1000 μg/kg, serum study day 18, FIG. 19. The method, then:
Methods: Mice (male BALB/c) were sensitized on study days 0 and 7 with antigen (ovalbumin, 10 μg, i.p.) and aluminum hydroxide adjuvant Pierce Alum, i.p.). Mice received SEQ ID NO:2 or SEQ ID NO:7 on study days −2, 0, 5 and 7 (i.e. two days before each sensitization and on the day of sensitization). Mice were bled by cardiac puncture on study day 18. Serum was collected by centrifugation and assayed by ELISA for ovalbumin-specific IgE and IgG2a.

As to “2 (T*C_G*T*C_G*T*C_G*T*T*C_G*G*C*G*C_G*C*G*C*C*G; as printed in the source, key not given here) [compound 2]”, the “induction of IL-10” value in series [1] is recorded as “dramatically higher induction”.
Take “T*C_G*T*C_G*A*C_G*A*T*C_G*G*C*G*C_G*C*G*C*C*G (DNA TCGTCGACGATCGGCGCGCGCCG; DNA, backbone and methylation of C not given here; Stabilized (*) and phosphodiester or phosphodiester-like (_) linkages) [SEQ ID NO: 4]”: in series [2], the “max SI (maximal stimulation index)” value is on record as 14.
For the substance “T*C_G*T*C_G*A*C_G*T*T*C_G*G*C*G*C_G*C*G*C*C*G (DNA dT*dCdG*dT*dCdG*dA*dCdG*dT*dT*dCdG*dG*dC*dG*dCdG*dC*dG*dC*dC*dG) [SEQ ID NO: 1, Semi-soft class C CpG ODN]”, the “max SI (maximal stimulation index)” value in series [2] was determined as 22. Also, the “induction of IL-10” value in series [1] is listed as “dramatically higher induction”.
Consider “T*C_G*T*C_G*T*T*C_G*G*C*G*C*G*C*C*G (DNA TCGTCGTTCGGCGCGCCG; DNA, backbone and methylation of C not given here; Stabilized (*) and phosphodiester or phosphodiester-like (_) linkages) [SEQ ID NO: 3, Semi-soft class C CpG ODN]”, for which the “max SI (maximal stimulation index)” value in series [2] turned out to be 16.
As to “T*C_G*T*C_G*T*T*T*T*G*A*C_G*T*T*T*T*G*T*C_G*T*T (DNA dT*dCdG*dT*dCdG*dT*dT*dT*dT*dG*dA*dCdG*dT*dT*dT*dT*dG*dT*dCdG*dT*dT) [SEQ ID NO: 7, Semi-soft class B CpG ODN included for comparison, reference compound]”, in series [3], the “incidence of nasal rubbing” value was “suppressed” and the incidence of sneezing result is on record as “suppressed”. In series [4], the “antigen-induced increase in nasal resistance” value was “significantly suppressed”. For the same substance, the “AUC-resistance (airway reactivity, area under the dose-response curve)” value in series [5] was “dose-dependent reduction”. Moreover, in series [6], the “production of antigen (ovalbumin)-specific IgE” value is on record as “suppressed” and the “production of antigen (ovalbumin)-specific IgG2a” value was “potentiated”.
Consider “T*T*C_G*T*C_G*T*T*T*T_G*T*C_G*T*T (DNA TTCGTCGTTTTGTCGTT; DNA, backbone and methylation of C not given here; Stabilized (*) and phosphodiester or phosphodiester-like (_) linkages) [SEQ ID NO: 5]”, for which the “max SI (maximal stimulation index)” value in series [2] was 13.
On the same count and under the same terms, the value for “T*T*T*C_G*T*C_G*T*T*T*C_G*T*C_G*T*T (DNA TTTCGTCGTTTCGTCGTT; DNA, backbone and methylation of C not given here; Stabilized (*) and phosphodiester or phosphodiester-like (_) linkages) [SEQ ID NO: 6]” was 11.
